What is called IC50 is the point on the concentration scale where inhibition reaches its midpoint.

One assay has as its target GABAA receptor (rat brain cortical membranes, [35S]-TBPS binding). To be noted: Table I-4; rat brain cortical membranes, 3 nM [35S]-TBPS, in the presence of 5 mM GABA.
On to `CN(C[C@H]1CCC[C@H]2[C@@H]3CC[C@@H]4C[C@](C)(O)CC[C@@H]4[C@H]3CC[C@]12C)C(=O)c1ccccc1` [I-C6, N-(((1S,4aS,4bR,6aR,8R,10aS,10bR,12aS)-8-hydroxy-8,12a-dimethyloctadecahydrochrysen-1-yl)methyl)-N-methylbenzamide], for which the half-maximal inhibitory concentration (IC50) was in the range of 100 to 1000 nM.
The same measure, in the same setting: in the case of `C[C@@]1(O)CC[C@H]2[C@H](CC[C@@H]3[C@@H]2CC[C@]2(C)C[C@@H](C(=O)c4ccccc4)CC[C@@H]32)C1` [I-R21, ((2S,4aS,4bR,6aR,8R,10aS,10bR,12aR)-8-hydroxy-8,12a-dimethyloctadecahydrochrysen-2-yl)(phenyl)methanone] it was 100 to 1000 nM; in that of `Cc1nnnn1CC(=O)[C@H]1CCC[C@H]2[C@@H]3CC[C@@H]4C[C@](C)(O)CC[C@]4(C)[C@H]3CC[C@]12C` [Compound I-20a, 1-((1S,4aS,4bR,6aR,8R,10aS,10bS,12aS)-8-hydroxy-8,10a,12a-trimethyloctadecahydrochrysen-1-yl)-2-(5-methyl-1H-tetrazol-1-yl)ethan-1-one], 100 to 1000 nM.
`C[C@@]1(O)CC[C@H]2[C@H](CC[C@@H]3[C@@H]2CC[C@]2(C)[C@@H](Nc4ccc(F)cc4)CCC[C@@H]32)C1` [Compound I-11, (2R,4aS,4bR,6aS,7S,10aS,10bR,12aR)-7-((4-fluorophenyl)amino)-2,6a-dimethyloctadecahydrochrysen-2-ol]: the IC50 lay within 100 to 1000 nM.
Same read-out and setting: in the case of `C[C@@]1(O)CC[C@H]2[C@H](CC[C@@H]3[C@@H]2CC[C@]2(C)[C@H](Nc4ccc(F)cc4)CCC[C@@H]32)C1` [Compound I-11a, (2R,4aS,4bR,6aS,7R,10aS,10bR,12aR)-7-((4-fluorophenyl)amino)-2,6a-dimethyloctadecahydrochrysen-2-ol] it was 1000 to 10000 nM; in that of `COC[C@@]1(O)CC[C@H]2[C@@H](CC[C@@H]3[C@@H]2CC[C@]2(C)[C@@H](Nc4ccc(F)cc4)CCC[C@@H]32)C1` [Compound I-23, (2R,4aS,4bR,6aS,7S,10aS,10bR,12aS)-7-((4-fluorophenyl)amino)-2-(methoxymethyl)-6a-methyloctadecahydrochrysen-2-ol], 10 to 100 nM; in that of `CCOC[C@@]1(O)CC[C@H]2[C@@H](CC[C@@H]3[C@@H]2CC[C@]2(C)[C@@H](O)CCC[C@@H]32)C1` [Compound I-39, (1S,4aS,4bR,6aS,8R,10aS,10bR,12aS)-8-(ethoxymethyl)-12a-methyloctadecahydrochrysene-1,8-diol], 1000 to 10000 nM.
Same read-out and setting: the same measure for `C[C@@]1(O)CC[C@H]2[C@H](CC[C@@H]3[C@@H]2CC[C@]2(C)[C@@H](C(=O)Nc4ccccc4)CCC[C@@H]32)C1` [Compound I-15, (1S,4aS,4bR,6aR,8R,10aS,10bR,12aS)-8-hydroxy-8,12a-dimethyl-N-phenyloctadecahydrochrysene-1-carboxamide]: 10 to 100 nM.
The same measure, in the same setting: the same measure for `C[C@@H]1CC[C@H]2[C@@H]3CC[C@@H]4C[C@](C)(O)CC[C@@H]4[C@H]3CC[C@]2(C)C1=O` [Compound I-50, (2R,4aS,4bR,6aR,8R,10aS,10bR,12aS)-8-hydroxy-2,8,12a-trimethylhexadecahydrochrysen-1(2H)-one]: 1000 to 10000 nM.
For `C[C@@]1(O)CC[C@H]2[C@H](CC[C@@H]3[C@@H]2CC[C@]2(C)[C@@H](CO)CCC[C@@H]32)C1` [I-A3, (2R,4aS,4bR,6aS,7S,10aS,10bR,12aR)-7-(hydroxymethyl)-2,6a-dimethyloctadecahydrochrysen-2-ol], the IC50 lay within 100 to 1000 nM.
For `C[C@@]1(O)CC[C@H]2[C@H](CC[C@@H]3[C@@H]2CC[C@]2(C)[C@@H](Nc4cccc(Cl)c4)CCC[C@@H]32)C1` [Compound I-9, (2R,4aS,4bR,6aS,7S,10aS,10bR,12aR)-7-((3-chlorophenyl)amino)-2,6a-dimethyloctadecahydrochrysen-2-ol], the IC50 is 10 to 100 nM.
On the same count and under the same terms, the same measure for `CC(=O)[C@@H]1CCC[C@H]2[C@@H]3CC[C@@H]4C[C@](C)(O)CC[C@@H]4[C@H]3CC[C@]12C` [I-D7a, 1-((1R,4aS,4bR,6aR,8R,10aS,10bR,12aS)-8-hydroxy-8,12a-dimethyloctadecahydrochrysen-1-yl)ethan-1-one]: 100 to 1000 nM.
On the same count and under the same terms, in the case of `COC[C@@]1(O)CC[C@H]2[C@@H](CC[C@@H]3[C@@H]2CC[C@]2(C)[C@@H](C(=O)Cn4nnnc4C)CCC[C@@H]32)C1` [I-G16a, 1-((1S,4aS,4bR,6aS,8R,10aS,10bR,12aS)-8-hydroxy-8-(methoxymethyl)-12a-methyloctadecahydrochrysen-1-yl)-2-(5-methyl-1H-tetrazol-1-yl)ethan-1-one] it was 10 to 100 nM.

Still in this assay, the particulars now being: Table I-5; rat brain cortical membranes, 3 nM [35S]-TBPS, in the presence of 5 mM GABA.
As to `C[C@@]1(O)CC[C@H]2[C@H](CC[C@@H]3[C@@H]2CC[C@]2(C)[C@H](CO)C[C@@H]32)C1` [I-AB1a, (1R,2aS,2bR,4aR,6R,8aS,8bR,10aS)-1-(hydroxymethyl)-6,10a-dimethylhexadecahydrocyclobuta[a]phenanthren-6-ol], the IC50 lay within 1000 to 10000 nM.
Same read-out and setting: the same measure for `C[C@@]1(O)CC[C@H]2[C@H](CC[C@@H]3[C@@H]2CC[C@]2(C)[C@@H](C(=O)Nc4ccccc4)C[C@@H]32)C1` [I-AA6, (1S,2aS,2bR,4aR,6R,8aS,8bR,10aS)-6-hydroxy-6,10a-dimethyl-N-phenylhexadecahydrocyclobuta[a]phenanthrene-1-carboxamide]: 1000 to 10000 nM.
Turning to `C[C@@]1(O)CC[C@H]2[C@H](CC[C@@H]3[C@@H]2CC[C@]2(C)[C@@H](C(=O)Cn4nccn4)C[C@@H]32)C1` [I-AA11, 1-((1S,2aS,2bR,4aR,6R,8aS,8bR,10aS)-6-hydroxy-6,10a-dimethylhexadecahydrocyclobuta[a]phenanthren-1-yl)-2-(2H-1,2,3-triazol-2-yl)ethan-1-one], the half-inhibitory concentration (IC50) is 1000 to 10000 nM.
The same measure, in the same setting: in the case of `COC[C@@H]1C[C@H]2[C@@H]3CC[C@@H]4C[C@](C)(O)CC[C@@H]4[C@H]3CC[C@]12C` [Compound I-118, (1R,2aS,2bR,4aR,6R,8aS,8bR,10aS)-1-(methoxymethyl)-6,10a-dimethylhexadecahydrocyclobuta[a]phenanthren-6-ol] it was 1000 to 10000 nM; in that of `COC[C@@]1(O)CC[C@H]2[C@H](CC[C@@H]3[C@@H]2CC[C@]2(C)[C@@H](C(C)=O)C[C@@H]32)C1` [I-AC11, 1-((1S,2aS,2bR,4aR,6R,8aS,8bR,10aS)-6-hydroxy-6-(methoxymethyl)-10a-methylhexadecahydrocyclobuta[a]phenanthren-1-yl)ethan-1-one], 100 to 1000 nM.
On the same count and under the same terms, the same measure for `C[C@@]1(O)CC[C@H]2[C@H](CC[C@@H]3[C@@H]2CC[C@]2(C)[C@@H](CO)C[C@@H]32)C1` [I-AB1, (1S,2aS,2bR,4aR,6R,8aS,8bR,10aS)-1-(hydroxymethyl)-6,10a-dimethylhexadecahydrocyclobutaialphenanthren-6-ol]: 1000 to 10000 nM.
Same read-out and setting: in the case of `C[C@@]1(O)CC[C@H]2[C@H](CC[C@@H]3[C@@H]2CC[C@]2(C)[C@@H](C(=O)Cn4ccnn4)C[C@@H]32)C1` [I-AA12, 1-((1S,2aS,2bR,4aR,6R,8aS,8bR,10aS)-6-hydroxy-6,10a-dimethylhexadecahydrocyclobuta[a]phenanthren-1-yl)-2-(1H-1,2,3-triazol-1-yl)ethan-1-one] it was 1000 to 10000 nM; in that of `COC[C@@]1(O)CC[C@H]2[C@H](CC[C@@H]3[C@@H]2CC[C@]2(C)[C@H](C(=O)Nc4ccccc4)C[C@@H]32)C1` [I-AC8a, (1R,2aS,2bR,4aR,6R,8aS,8bR,10aS)-6-hydroxy-6-(methoxymethyl)-10a-methyl-N-phenylhexadecahydrocyclobuta[a]phenanthrene-1-carboxamide], 1000 to 10000 nM.

Still in this assay, the particulars now being: Table I-6; rat brain cortical membranes, 3 nM [35S]-TBPS, in the presence of 5 mM GABA.
Take `C[C@@]1(O)CC[C@H]2[C@H](CC[C@@H]3[C@@H]2CC[C@]2(C)[C@H](C(=O)Nc4ccccc4)CCCC[C@@H]32)C1` [I-BA17a, (2R,4aS,4bR,6aS,7R,11aS,11bR,13aR)-2-hydroxy-2,6a-dimethyl-N-phenyloctadecahydro-1H-cyclohepta[a]phenanthrene-7-carboxamide]: the IC50 was 100 to 1000 nM.
Same read-out and setting: in the case of `COC[C@@H]1CCCC[C@H]2[C@@H]3CC[C@@H]4C[C@](C)(O)CC[C@@H]4[C@H]3CC[C@]12C` [I-BA6a, (2R,4aS,4bR,6aS,7R,11aS,11bR,13aR)-7-(methoxymethyl)-2,6a-dimethyloctadecahydro-1H-cyclohepta[a]phenanthren-2-ol] it was 1000 to 10000 nM.
The same measure, in the same setting: in the case of `C[C@@]1(O)CC[C@H]2[C@H](CC[C@@H]3[C@@H]2CC[C@]2(C)[C@@H](C#N)CCCC[C@@H]32)C1` [I-BA16, (2R,4aS,4bR,6aS,7S,11aS,11bR,13aR)-2-hydroxy-2,6a-dimethyloctadecahydro-1H-cyclohepta[a]phenanthrene-7-carbonitrile] it was 10 to 100 nM.
As for `C[C@@]1(O)CC[C@H]2[C@H](CC[C@@H]3[C@@H]2CC[C@]2(C)C[C@@H](C(=O)Cn4cc(C#N)cn4)CCC[C@@H]32)C1` [I-BC16, 1-(2-((2R,4aS,4bR,6aR,8S,11aS,11bR,13aR)-2-hydroxy-2,6a-dimethyloctadecahydro-1H-cyclohepta[a]phenanthren-8-yl)-2-oxoethyl)-1H-pyrazole-4-carbonitrile], the concentration for half-maximal inhibition (IC50) fell in the range of 100 to 1000 nM.
Same read-out and setting: the same measure for `C[C@@]1(O)CC[C@H]2[C@H](CC[C@@H]3[C@@H]2CC[C@]2(C)[C@H](O)CCCC[C@@H]32)C1` [I-BA12, (2R,4aS,4bR,6aS,7R,11aS,11bR,13aR)-2,6a-dimethyloctadecahydro-1H-cyclohepta[a]phenanthrene-2,7-diol]: 1000 to 10000 nM.

The record behind these values is patent US20220315621A1, “COMPOSITIONS AND METHODS FOR TREATING CNS DISORDERS” (priority 2017, published 2022).
